Test results: patent publication US20180333418A1, “USE OF PAN FGFR INHIBITORS AND METHOD OF IDENTIFYING PATIENTS WITH CANCER ELIGIBLE FOR TREATMENT WITH A PAN FGFR INHIBITOR” (BAYER PHARMA AKTIENGESELLSCHAFT, priority 2014, published 2018)

Experiments:
[1] = system: ES204 esophagus squamous cell carcinoma; assay: ES204 patient-derived xenograft study; type: in vivo, nu/nu mice
Protocol: Female, 6-8 weeks old immunocompromised nu/nu mice (18-24 g) from Vital River (China) were used for the patient-derived ES204 esophagus squamous cell carcinoma study.
Experiment was initiated after a minimal acclimatization period of 6 days. Mice were kept in a 12 hours light/dark cycle, food and water was available ad libitum and housing temperature was 20-26° C. All the procedures related to animal handling, care, and the treatment in this study were performed according to the guidelines approved by the Institutional Animal Care and Use Committee (IACUC) of CrownBio following the guidance of the Association for Assessment and Accreditation of Laboratory Animal Care (AAALAC). […]
Tumor fragments from stock mice inoculated with selected primary human esophagus cancer tissues (ES204) were harvested and used for inoculation onto female nu/nu nude mice. […] Tumors were sampled when mice in the control group reached sacrificing criteria, and final tumor weights were measured on day 23 post treatment start.
Tumor size was measured twice weekly in two dimensions using a caliper, and the volume was expressed in mm^3 using the formula: V=0.5a×b^2 where a and b are the long and short diameters of the tumor, respectively. […]
Descriptive statistics for all groups were performed on final tumor areas and tumor weights at day of the necropsy. Statistical analysis was assessed using the SigmaStat software. […]

[2] = system: HN9897 Head & Neck squamous cell carcinoma; assay: HN9897 patient-derived xenograft study; type: in vivo, nu/nu mice
[3] = system: RT112 bladder tumor model; assay: RT112 xenograft in vivo efficacy; design: species or system nu/nu mice; details: tumor weight reduction
Protocol: (§1) For all other tumors as listed in table 2 & 3 the experiments were carried out in an analogous way as described above.

H520 lung tumor model = assay: H520 xenograft in vivo efficacy; design: species or system nu/nu mice; details: tumor weight reduction
Protocol: as §1

[4] = system: LXFL1121 lung tumor model; assay: LXFL1121 xenograft in vivo efficacy; design: species or system nu/nu mice; details: tumor weight reduction
Protocol: as §1

[5] = system: MFE280 endometrial tumor model; assay: MFE280 xenograft in vivo efficacy; design: species or system nu/nu mice; details: tumor weight reduction
Protocol: as §1

HepG2 liver tumor model = assay: HepG2 xenograft in vivo efficacy; design: species or system nu/nu mice; details: tumor weight reduction
Protocol: as §1

LU299 lung tumor model = assay: LU299 xenograft in vivo efficacy; design: species or system nu/nu mice; details: tumor weight reduction
Protocol: as §1

LXFE211 lung tumor model = assay: LXFE211 xenograft in vivo efficacy; design: species or system nu/nu mice; details: tumor weight reduction
Protocol: as §1

LU0697 lung tumor model = assay: LU0697 xenograft in vivo efficacy; design: species or system nu/nu mice; details: tumor weight reduction
Protocol: as §1

H1703 lung tumor model = assay: H1703 xenograft in vivo efficacy; design: species or system nu/nu mice; details: tumor weight reduction
Protocol: as §1

[6] = system: HN366 head&neck tumor model; assay: HN366 xenograft in vivo efficacy; design: species or system nu/nu mice; details: tumor weight reduction
Protocol: as §1

[7] = system: KYSE-140 esophageal tumor model; assay: KYSE-140 xenograft in vivo efficacy; design: species or system nu/nu mice; details: KYSE-140 esophageal model; tumor weight reduction
Protocol: as §1

[8] = system: LXFA1584 lung tumor model; assay: LXFA1584 xenograft in vivo efficacy; design: species or system nu/nu mice; details: tumor weight reduction
Protocol: as §1

DMS114 lung tumor model = assay: DMS114 xenograft in vivo efficacy; design: species or system nu/nu mice; details: tumor weight reduction
Protocol: as §1

[9] = system: A2780 ovarian tumor model; assay: A2780 xenograft in vivo efficacy; design: species or system nu/nu mice; details: tumor weight reduction
Protocol: as §1

[10] = system: FGFR mRNA-positive tumors of cancer patients; assay: Clinical trial NCT01976741, RECIST CT scan evaluation; type: in vivo; design: key to RECIST response after C2 / RECIST response after C5: Stable Disease (SD) according to RECIST; progressive disease (PD); details: 800 mg BID; for % tumor change after C2 / RECIST response after C2: C2 = 6 weeks; for % tumor change after C5 / RECIST response after C5: C5 = 15 weeks

For `COCc1c(-c2cc3cc(C)cc(OC)c3s2)c2c(N)ncnn2c1CN1CCNC(=O)C1` [compound of formula (I)], the “T/C at day 23 post treatment start” value ([1]; ES204, 50 mg/kg 2QD po, treated mean/vehicle mean tumor volume) was 0.1, the in vivo efficacy ([1]; ES204 esophageal model, tumor weight reduction) was “yes (All models in which the tumor weight was reduced upon treatment with compounds of formula (I) by at least 50% were considered to be efficacious in vivo.)” and the “T/C at day 44 post treatment start” value ([2]; HN9897, 50 mg/kg 2QD po, treated mean/vehicle mean tumor volume) was 0.08. The in vivo efficacy ([2]; HN9897 head&neck model, tumor weight reduction) was “yes (All models in which the tumor weight was reduced upon treatment with compounds of formula (I) by at least 50% were considered to be efficacious in vivo.)”, the in vivo efficacy [3] was “yes (All models in which the tumor weight was reduced upon treatment with compounds of formula (I) by at least 50% were considered to be efficacious in vivo.)” and the in vivo efficacy (H520 lung tumor model) was “no (All models in which the tumor weight was reduced upon treatment with compounds of formula (I) by at least 50% were considered to be efficacious in vivo.)”. For the same molecule, the in vivo efficacy [4] was “yes (All models in which the tumor weight was reduced upon treatment with compounds of formula (I) by at least 50% were considered to be efficacious in vivo.)”, the in vivo efficacy [5] was “yes (All models in which the tumor weight was reduced upon treatment with compounds of formula (I) by at least 50% were considered to be efficacious in vivo.)” and the in vivo efficacy (HepG2 liver tumor model) was “no (All models in which the tumor weight was reduced upon treatment with compounds of formula (I) by at least 50% were considered to be efficacious in vivo.)”. For the same molecule, the in vivo efficacy (LU299 lung tumor model) was “yes (All models in which the tumor weight was reduced upon treatment with compounds of formula (I) by at least 50% were considered to be efficacious in vivo.)”, the in vivo efficacy (LXFE211 lung tumor model) was “yes (All models in which the tumor weight was reduced upon treatment with compounds of formula (I) by at least 50% were considered to be efficacious in vivo.)” and the in vivo efficacy (LU0697 lung tumor model) was “yes (All models in which the tumor weight was reduced upon treatment with compounds of formula (I) by at least 50% were considered to be efficacious in vivo.)”. For the same molecule, the in vivo efficacy (H1703 lung tumor model) was “no (All models in which the tumor weight was reduced upon treatment with compounds of formula (I) by at least 50% were considered to be efficacious in vivo.)”, the in vivo efficacy [6] was “yes (All models in which the tumor weight was reduced upon treatment with compounds of formula (I) by at least 50% were considered to be efficacious in vivo.)” and the in vivo efficacy [7] was “no (All models in which the tumor weight was reduced upon treatment with compounds of formula (I) by at least 50% were considered to be efficacious in vivo.)”. For the same molecule, the in vivo efficacy [8] was “no (All models in which the tumor weight was reduced upon treatment with compounds of formula (I) by at least 50% were considered to be efficacious in vivo.)”, the in vivo efficacy (DMS114 lung tumor model) was “yes (All models in which the tumor weight was reduced upon treatment with compounds of formula (I) by at least 50% were considered to be efficacious in vivo.)” and the in vivo efficacy [9] was “yes (All models in which the tumor weight was reduced upon treatment with compounds of formula (I) by at least 50% were considered to be efficacious in vivo.)”. For the same molecule, the “% tumor change after C2” value ([10]; Pat 100010010, sqNSCLC) was 0%, the “RECIST response after C2” value ([10]; Pat 100010010, sqNSCLC) was “SD” and the “% tumor change after C5” value ([10]; Pat 100010010, sqNSCLC) was “+8%”. The “RECIST response after C5” value ([10]; Pat 100010010, sqNSCLC) was “SD”, the “% tumor change after C2” value ([10]; Pat 100010018, Mesothelioma) was “+14%” and the “RECIST response after C2” value ([10]; Pat 100010018, Mesothelioma) was “SD”. The “% tumor change after C2” value ([10]; Pat 100020012, sqNSCLC) was −10%, the “RECIST response after C2” value ([10]; Pat 100020012, sqNSCLC) was “SD” and the “% tumor change after C2” value ([10]; Pat 560020029, sqNSCLC) was “+4%”. The “RECIST response after C2” value ([10]; Pat 560020029, sqNSCLC) was “SD”, the “% tumor change after C5” value ([10]; Pat 560020029, sqNSCLC) was “+5%” and the “RECIST response after C5” value ([10]; Pat 560020029, sqNSCLC) was “SD”. The “% tumor change after C2” value ([10]; Pat 560020064, SCLC) was −2%, the “RECIST response after C2” value ([10]; Pat 560020064, SCLC) was “SD” and the “% tumor change after C2” value ([10]; Pat 580010012, sqNSCLC) was −10%. The “RECIST response after C2” value ([10]; Pat 580010012, sqNSCLC) was “SD”, the “% tumor change after C5” value ([10]; Pat 580010012, sqNSCLC) was −10% and the “RECIST response after C5” value ([10]; Pat 580010012, sqNSCLC) was “SD”. For the same molecule, the “% tumor change after C2” value ([10]; Pat 580010016, sqNSCLC) was −5%, the “RECIST response after C2” value ([10]; Pat 580010016, sqNSCLC) was “SD” and the “% tumor change after C5” value ([10]; Pat 580010016, sqNSCLC) was −6%. For the same molecule, the “RECIST response after C5” value ([10]; Pat 580010016, sqNSCLC) was “SD”, the “% tumor change after C2” value ([10]; Pat 580010022, Bladder) was −3% and the “RECIST response after C2” value ([10]; Pat 580010022, Bladder) was “SD”. For the same molecule, the “% tumor change after C5” value ([10]; Pat 580010022, Bladder) was −2%, the “RECIST response after C5” value ([10]; Pat 580010022, Bladder) was “SD” and the “% tumor change after C2” value ([10]; Pat 580010038, Unknown primary) was “+26%”. The “RECIST response after C2” value ([10]; Pat 580010038, Unknown primary) was “PD”.
